The values that follow are results of earlier work, collected in paper PMC13427755 (Nature Communications, 2026).

Read-outs that look alike come from different tables or passages of the source.

The test system of the data set is SP-D. As to conditions: at 12 weeks, cited from earlier work.

Turning to `COC(=O)c1ccc2c(c1)NC(=O)/C2=C(\Nc1ccc(N(C)C(=O)CN2CCN(C)CC2)cc1)c1ccccc1` [nintedanib], the “decrease in SP-D” value (INMARK study of nintedanib) is 4%.
In the case of `Cc1ccc(=O)n(-c2ccccc2)c1` [pirfenidone], the “decrease in SP-D” value (CAPACITY study of pirfenidone) is recorded as 5%.
